Consider 15 molecules from ChEMBL document CHEMBL5537121, “Synthesis and biological evaluation of structurally diverse 6-aryl-3-aroyl-indole analogues as inhibitors of tubulin polymerization” (Eur J Med Chem, 2024).

Calls of active or inactive are those of the source. The calls are words filed in the database; no cut-off is given here.

Usually IC50 stands for the concentration that inhibits the measured activity by half. The term inhibition denotes how much of the control response was suppressed. As usually defined, the GI50 is the concentration that inhibits growth by half. The solubility is the concentration that dissolves in the medium under given conditions.

Data set [1] in a line: Inhibition of bovine brain tubulin polymerization preincubated for 15 mins followed by GTP addition and measured after 20 mins by spectrophotometric analysis. Also noted: species or system Bos taurus.
The target of data set [2] is T1, Tubulin (Homo sapiens) (UniProt P68371+Q9H4B7+P0DPH7+P68366+Q13509+Q71U36+P04350+Q3ZCM7+P07437+P68363+Q9BQE3+Q6PEY2+Q13885+Q9BVA1+Q9BUF5). The experiment in a line: Inhibition of [3H]Colchicine binding to tubulin (unknown origin) at 5 uM incubated for 10 mins by scintillation counter relative to control. The format is protein-complex assay.
In another data set the test system is MCF7. Kind of data set: Cytotoxicity against human MCF7 cells assessed as cell growth inhibition incubated for 96 hrs by SRB assay. The format is functional.
Data set [3] has as its system MDA-MB-231. The experiment in a line: Cytotoxicity against human MDA-MB-231 cells assessed as cell growth inhibition incubated for 96 hrs by SRB assay. It counts as functional.
Data set [4] can be described thus: Aqueous solubility of compound. It counts as physicochemical. The settings on record: water.
For data set [5], the system named is Mus musculus. The experiment in a line: Vascular disrupting activity in BALB/c mouse implanted with mouse orthotopic RENCA-luc assessed as reduction in bioluminescence imaging signal at 100 mg/kg administered as single dose and measured at 2.5 hrs by imaging analysis. It counts as functional, organism-based.
Data set [6] has as its system Mus musculus. Kind of data set: Vascular disrupting activity in BALB/c mouse implanted with mouse orthotopic RENCA-luc assessed as reduction in bioluminescence imaging signal at 150 mg/kg administered as single dose and measured at 2.5 hrs by imaging analysis relative to control. More on the design: scale not given: the % may be the effect or the level left. The format is functional.

For data set [7], the system named is Mus musculus. The experiment in a line: Vascular disrupting activity in BALB/c mouse implanted with mouse orthotopic RENCA-luc assessed as hemorrhage at 150 mg/kg administered as single dose and measured after 2.5 hrs by H&E staining based analysis. It counts as functional, organism-based.
Data set [8] concerns Mus musculus. The experiment in a line: Vascular disrupting activity in BALB/c mouse implanted with mouse orthotopic RENCA-luc assessed as necrosis at 150 mg/kg administered as single dose and measured after 2.5 hrs by H&E staining based analysis. It counts as functional, organism-based.
Data set [9] concerns the target T1, Tubulin (Homo sapiens). Kind of data set: Inhibition of [3H]Colchicine binding to tubulin (unknown origin) at 0.5 uM incubated for 10 mins by scintillation counter relative to control. The format is protein-complex assay.
Data set [10] addresses T1, Tubulin (Homo sapiens). Kind of data set: Induction of microtubule disruption in human MDA-MB-231 cells assessed as reduction in fluorescence at 100 nM measured at <1.5 mins by ViaFluor 488 live cell microtubule and Hoechst 33342 staining based fluorescence microscopic analysis.
Data set [11] deals with T1, Tubulin (Homo sapiens). Kind of data set: Induction of microtubule disruption in human MDA-MB-231 cells at 100 nM measured at 30 mins by ViaFluor 488 live cell microtubule and Hoechst 33342 staining based fluorescence microscopic analysis.
Data set [12] deals with MDA-MB-231. Kind of data set: Induction of G2/M phase cell cycle arrest in human MDA-MB-231 cells at 200 to 500 nM incubated for 48 hrs by PI staining based flow cytometric analysis. The format is functional. To be noted: dose 200-500 nM. A general note: In flow cytometry, cells or beads pass a laser one at a time.
The test system of data set [13] is MDA-MB-231. Kind of data set: Inhibition of cell migration in human MDA-MB-231 cells at 50 nM incubated for 4 hrs by scratch assay. It counts as functional, cell-based.
In data set [14] the test system is MDA-MB-231. The experiment in a line: Inhibition of cell migration in human MDA-MB-231 cells at 50 nM incubated for 6 hrs by scratch assay. It counts as functional, cell-based.
In data set [15] the test system is MDA-MB-231. The experiment in a line: Inhibition of cell proliferation in human MDA-MB-231 cells at 50 nM incubated for 6 hrs by scratch assay. It counts as functional, cell-based.
Data set [16] deals with MDA-MB-231. The experiment in a line: Inhibition of cell migration in human MDA-MB-231 cells at 50 nM incubated for 72 hrs by scratch assay. The format is functional, cell-based.
In data set [17] the test system is MDA-MB-231. Kind of data set: Induction of morphological changes in human MDA-MB-231 cells at 100 nM measured within 2 hrs by scratch assay. It counts as functional, cell-based.
Data set [18] concerns MDA-MB-231. The experiment in a line: Induction of morphological changes in human MDA-MB-231 cells assessed as cell rounding at 100 nM measured after 20 hrs by scratch assay relative to control. The format is functional.
Data set [19] deals with MDA-MB-231. The experiment in a line: Inhibition of cell migration in human MDA-MB-231 cells at 100 nM incubated for 20 hrs by scratch assay. It counts as functional, cell-based.
The test system of data set [20] is MDA-MB-231. The experiment in a line: Inhibition of cell proliferation in human MDA-MB-231 cells at 100 nM incubated for 20 hrs by scratch assay. It counts as functional, cell-based.
In data set [21] the test system is MDA-MB-231. The experiment in a line: Inhibition of cell migration in human MDA-MB-231 cells at 100 nM incubated for 30 hrs by scratch assay. It counts as functional, cell-based.
For data set [22], the system named is MDA-MB-231. Kind of data set: Induction of morphological changes in human MDA-MB-231 cells at 200 nM measured within 1 hrs by scratch assay. The format is functional, cell-based.
Data set [23] concerns MDA-MB-231. The experiment in a line: Induction of morphological changes in human MDA-MB-231 cells assessed as cell rounding at 200 nM measured after 14 hrs by scratch assay. It counts as functional.
The subject of data set [24] is MDA-MB-231. The experiment in a line: Inhibition of cell migration in human MDA-MB-231 cells at 200 nM by scratch assay. The format is functional, cell-based.
The subject of data set [25] is MDA-MB-231. The experiment in a line: Inhibition of cell proliferation in human MDA-MB-231 cells at 200 nM by scratch assay. It counts as functional, cell-based.

Take `COc1cc(C(=O)c2c[nH]c3cc(-c4ccc(C)cc4)ccc23)cc(OC)c1OC`: in data set [1], it took 1700 nM to reach half-maximal inhibition (IC50). This molecule showed an inhibition on Tubulin (Homo sapiens) [2] of 17%. Besides, the values for the GI50 with MCF7 and in the data set on MDA-MB-231 [3] were 560 nM and 2010 nM, respectively.
`COc1cc(C(=O)c2c[nH]c3cc(-c4cccc(OP(=O)([O-])[O-])c4)ccc23)cc(OC)c1OC.[Na+].[Na+]` displayed an IC50 in [1] of 9000 nM. Moreover, the GI50 in the data set with MCF7 is 4200 nM; in the data set on MDA-MB-231 [3], 694 nM. Further, the solubility in [4] is ≤ 2400 µg/mL. Besides, the outcome in the data set with Mus musculus [5], in the data set on Mus musculus [7] and in the data set on Mus musculus [8] was Active. In addition, in the data set with Mus musculus [6], the Activity is given as >90%.
For the molecule `COc1ccc(/C=C\c2cc(OC)c(OC)c(OC)c2)cc1O` [COMBRETASTATIN A4], the GI50 with MCF7 is 9 nM; in the data set on MDA-MB-231 [3], 3.5 nM.
In the case of `COc1cc(C(=O)c2c[nH]c3cc(-c4cc5ccccc5o4)ccc23)cc(OC)c1OC`, in data set [1], the IC50 was > 20000 nM. Further, the GI50 in the data set with MCF7 was found to be 950 nM; in the data set with MDA-MB-231 [3], 2070 nM.
In the case of `COc1cc(C(=O)c2c[nH]c3cc(-c4ccccc4)ccc23)cc(OC)c1OC`, the IC50 in data set [1] turned out to be 280 nM. Further, at Tubulin (Homo sapiens) [2], the inhibition came to 86%. Further, the GI50 in the data set with MCF7 was 73 nM; in the data set with MDA-MB-231 [3], 156 nM.
Take `COc1cc(C(=O)c2c[nH]c3cc(-c4ccc(C(F)(F)F)cc4)ccc23)cc(OC)c1OC`: the IC50 in data set [1] was > 20000 nM. For the same molecule, the GI50 stood at 1400 nM in the data set with MCF7 and 4060 nM in the data set with MDA-MB-231 [3].
The molecule `COc1ccc(-c2ccc3c(C(=O)c4cc(OC)c(OC)c(OC)c4)c[nH]c3c2)cc1` had an IC50 in data set [1] of 2500 nM. Further, on Tubulin (Homo sapiens) [2], the inhibition is 9.1%. The results for the GI50 with MCF7 and in the data set on MDA-MB-231 [3] were 98 nM and 1860 nM, respectively.
`COc1cc(C(=O)c2c[nH]c3cc(-c4cccc(N)c4)ccc23)cc(OC)c1OC` yielded an IC50 in data set [1] of 420 nM. In addition, the inhibition on Tubulin (Homo sapiens) [2] was determined as 91%; on Tubulin (Homo sapiens) [9], 51%. The results for the GI50 with MCF7 and with MDA-MB-231 [3] were 65 nM and 25 nM, respectively.
For `COc1cc(C(=O)c2c[nH]c3cc(-c4ccc(C(C)=O)s4)ccc23)cc(OC)c1OC`, in data set [1], the IC50 is > 20000 nM. For the same molecule, the GI50 with MCF7 was found to be 73 nM; with MDA-MB-231 [3] it was 3230 nM.
For `COc1ccc(-c2ccc3c(C(=O)c4cc(OC)c(OC)c(OC)c4)c[nH]c3c2)cc1O`, in that order: > 20000 nM, 1500 nM and 828 nM.
In data set [1], `COc1cc(C(=O)c2c[nH]c3cc(-c4cccc(O)c4)ccc23)cc(OC)c1OC` showed an IC50 of 570 nM. For the same molecule, the inhibition on Tubulin (Homo sapiens) [2] was 87%. In addition, the GI50 worked out at 320 nM with MCF7 and 102 nM with MDA-MB-231 [3]. For the same molecule, the result on Tubulin (Homo sapiens) [10], on Tubulin (Homo sapiens) [11], in the data set on MDA-MB-231 [12], in the data set on MDA-MB-231 [17] and in the data set with MDA-MB-231 [22] was Active. For the same molecule, the inhibition entry in the data set with MDA-MB-231 [13], with MDA-MB-231 [19], in the data set on MDA-MB-231 [20], with MDA-MB-231 [21], in the data set on MDA-MB-231 [24] and in the data set with MDA-MB-231 [25] was “Active” in each case. In addition, the inhibition result in the data set with MDA-MB-231 [14], with MDA-MB-231 [15] and in the data set on MDA-MB-231 [16] was “inactive” in each case. Also, the Activity is recorded as <90% with MDA-MB-231 [18] and >90% in the data set with MDA-MB-231 [23].
Regarding `COc1cc(C(=O)c2c[nH]c3cc(-c4cccc([N+](=O)[O-])c4)ccc23)cc(OC)c1OC`, the IC50 in data set [1] is 650 nM. This molecule yielded an inhibition on Tubulin (Homo sapiens) [2] of 41%. Besides, the GI50 was 28 nM with MCF7 and 110 nM in the data set with MDA-MB-231 [3].
Take `CCc1ccc(-c2ccc3c(C(=O)c4cc(OC)c(O)c(OC)c4)c[nH]c3c2)cc1`: the IC50 in [1] was > 20000 nM. In addition, the GI50 with MCF7 and with MDA-MB-231 [3] was > 5000 nM in each case.
In data set [1], `COc1cccc(-c2ccc3c(C(=O)c4cc(OC)c(OC)c(OC)c4)c[nH]c3c2)c1` displayed an IC50 of 370 nM. For the same molecule, the inhibition at Tubulin (Homo sapiens) [2] was determined as 87%. In addition, the GI50 was 23 nM in the data set on MCF7 and 36 nM with MDA-MB-231 [3].
With `CCc1ccc(-c2ccc3c(C(=O)c4cc(OC)c(OC)c(OC)c4)c[nH]c3c2)cc1`, the IC50 in data set [1] was > 20000 nM. For the same molecule, the results for the GI50 in the data set with MCF7 and in the data set with MDA-MB-231 [3] were 1800 nM and 2220 nM, respectively.
